Test results taken from patent US20190307820A1, “COMPOSITIONS AND METHODS OF USING STAT1/3 INHIBITORS WITH ONCOLYTIC HERPES VIRUS” (priority 2016, published 2019).
Counter-ions that a name gives are not always drawn.

Legend:
ICP4 = experiment: Western blot of ICP4 in HSV-1 infected microglia cells; assay type: cell-based; settings: G207 infected; 1 μM C16, 1 μM Bay11 or 100 μM AG; 24 hours
Method: FIG. 12B depicts an electrophoresis gel showing total proteins that were harvested from G2O7 infected microglia cells at 24 hours post treatment with either 1 μM of C16, 1 μM of Bay11, or 100 μM of AG. ICP27, ICP4, and […] expression was measured by western blot assay. U87 and MG co-culture were pretreated with 0.5 μM of C16 for 1 hour.
Total protein was harvested with sample buffer (125 mM Tris-HCL, 50% Glycerol, […] and 5% 2-mercaptoethanol) and boiled for 5 minutes. Protein samples were subjected to SDS-PAGE (8% gel), transferred to nitrocellulose membranes and blocked in 5% nonfat milk (Bio Rad) in TBS-Tween 20 (TBS-T) for 1 hour at room temperature. The membranes were then incubated with primary antibody against β-actin at 1:1000 (Cell Signaling, Danvers, Mass.) or anti-STAT1 antibody at 1:1000 (Cell Signaling, Danvers, Mass.) or anti-STAT3 antibody at 1:1000 (Cell Signaling, Danvers, Mass.) or anti-phospho STAT1 antibody (Tyr701) at 1:1000 (Cell Signaling, Danvers, Mass.) or anti-phospho STAT3 antibody (Tyr705) at 1:1500 (Cell Signaling, Danvers, Mass.) or anti-phosphor-eIF2a antibody (ser51) at 1:1000 (Cell Signaling, Danvers, Mass.) or anti-ICP27 antibody at 1:1000 (Abcam, Cambridge, Mass.) or anti-ICP4 antibody at 1:750 (Abcam, Cambridge, Mass.) for overnight at 4° C. […] Band density was measured by using ImageJ software (NIH, Bethesda, Md.). […]

[1] = test system: oHSV-1 (G207) in BV2 cells; experiment: G207 replication in BV2 cells with chemical inhibitors, plaque forming assay; assay type: cell-based, HSV-1; settings: G207 MOI of 1, 48 hours
Method: (§1) FIG. 12A contains bar graphs showing the results of BV2 cells that were pre-treated with indicated chemical compounds for 1-2 hours and then infected with oHSV-1 at an MOI of 1. Viruses were harvested after 48 hours of oHSV-1 (G207) and indicated chemical inhibitor treatment.
as §1, with “12F is a” for “12A contains”, “graph” for “graphs”, “treatment. After 48 hours of treatment with oHSV-1 (G207) and C16, viruses were harvested and titrated by plaque forming assay on vero cells.” for “treatment.”
U87 (5×104) alone or U87+microglia co-culture (5×104+5×104) or BV2 microglia cells (5×104) alone were seeded into a 24-well plate. After overnight incubation (to allow the cells to attach), cells were pretreated with indicated concentration of NFkB inhibitor, Bay-11 (Santa Cruz, Canada) or an indicated concentration of imidazolo-oxindole derivative C16 (Milipore, Canada) or vehicle for 1-2 hours. The cells were then infected with oHSV-1 (G207 or HrR3) virus at a MOI of 1 in presence of chemical inhibitors for another 2 days. The viruses were harvested and titrated in vero cells by plaque forming assay in 12-well plates by triplicates.
The effects of a PKR inhibitor (C16), a NFkappaB inhibitor (Bay11), and an iNOS inhibitor (aminoguanidine hydrochloride) were tested on G207 replication in BV2 cells (Example 15). […] To verify that C16-mediated viral gene transcriptional augmentation is not due to deletions in ICP34.5 and/or ICP6 in G207, the effect of C16 on wild type (KOS) and ICP6 mutated (HrR3) HSV-1 infected BV2 cells was also examined. […] Finally, whether C16 can overcome this microglia-mediated suppression of viral replication in glioma cells was examined.

Cc1ccc(S(=O)(=O)/C=C/C#N)cc1 [Bay11]
upregulated expression of ICP4 (ICP4): not | effect on oHSV-1 replication [1]: no effect on oHSV-1 replication

N=C(N)NN [aminoguanidine hydrochloride]
effect on oHSV-1 replication [1]: no effect on oHSV-1 replication
